This passage reports IC50 results from US11878965B2, “Inhibitors of peptidylarginine deiminases” (Gilead Sciences, Inc., priority 2020, dated 2024).

The IC50 is the midpoint of a concentration-inhibition curve.

One experiment deals with human PAD4 (Homo sapiens (Human), UniProt Q9UM07). Put plainly: In Vitro PAD4 BAEE Biochemical Assay. The note with it: human PAD4, BAEE substrate; 5 nM PAD4, 2 mM calcium chloride, 3 mM BAEE; geometric mean of multiple experiments. Put shortly: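 Deimination of BAEE substrate (3 mM) measured as ammonia via o-phthalaldehyde–DTT isoindole fluorescence, 405/535 nm. Tag-free bacterially expressed human PAD4 at 5 nM with 2 mM calcium chloride, pH 7.6 MOPS buffer, 30 min compound preincubation then 2 h reaction, both at 25 °C.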
human PAD4, sequence (Q9UM07 2-663): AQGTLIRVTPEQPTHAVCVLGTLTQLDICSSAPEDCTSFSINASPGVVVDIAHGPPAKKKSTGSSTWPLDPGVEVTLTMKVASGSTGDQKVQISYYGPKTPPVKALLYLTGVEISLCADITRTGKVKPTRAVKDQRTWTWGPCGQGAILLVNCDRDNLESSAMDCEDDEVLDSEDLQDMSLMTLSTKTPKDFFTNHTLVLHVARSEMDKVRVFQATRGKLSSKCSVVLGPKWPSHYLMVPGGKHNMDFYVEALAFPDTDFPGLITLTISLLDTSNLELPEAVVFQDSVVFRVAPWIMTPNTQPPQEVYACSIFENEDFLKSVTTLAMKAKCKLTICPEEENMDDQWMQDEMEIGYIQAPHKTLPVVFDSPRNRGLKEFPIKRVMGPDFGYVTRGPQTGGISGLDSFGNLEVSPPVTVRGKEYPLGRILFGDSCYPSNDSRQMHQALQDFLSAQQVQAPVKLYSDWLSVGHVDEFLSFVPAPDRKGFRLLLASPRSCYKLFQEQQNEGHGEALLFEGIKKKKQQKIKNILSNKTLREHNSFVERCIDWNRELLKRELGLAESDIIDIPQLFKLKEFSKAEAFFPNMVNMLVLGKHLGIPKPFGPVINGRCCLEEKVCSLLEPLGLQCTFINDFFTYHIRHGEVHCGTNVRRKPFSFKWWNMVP
As for `COc1cc(C(=O)N2[C@H]3CC[C@@H]2[C@H](N)C3)cc2nc(-c3cc4ccc([C@@H](C)NC(=O)N5CC[C@@H](F)C5)cc4n3CC3CC3)n(C)c12` [Example 237, (R)-N-((R)-1-(2-(5-((1R,2R,4S)-2-amino-7-azabicyclo[2.2.1]heptane-7-carbonyl)-7-methoxy-1-methyl-1H-benzo[d]imidazol-2-yl)-1-(cyclopropylmethyl)-1H-indol-6-yl)ethyl)-3-fluoropyrrolidine-1-carboxamide], the IC50 was found to be 18.5 nM.
On the same count and under the same terms, under `COc1cc(C(=O)N2CCC[C@@H](N)C2)cc2nc(-c3cc4ccc(N(C(F)F)S(C)(=O)=O)nc4n3CC3CC3)n(C)c12` [Example 18, (R)-N-(2-(5-(3-aminopiperidine-1-carbonyl)-7-methoxy-1-methyl-1H-benzo[d]imidazol-2-yl)-1-(cyclopropylmethyl)-1H-pyrrolo[2,3-b]pyridin-6-yl)-N-(difluoromethyl) methanesulfonamide] stands 83 nM; under `COc1cc(C(=O)N2CCCC3(CCCCN3)C2)cc2nc(-c3cc4ccc(N(C(F)F)S(C)(=O)=O)nc4n3CC3CC3)n(C)c12` (stereo not shown) [Example 68, N-(1-(cyclopropylmethyl)-2-(7-methoxy-1-methyl-5-(1,8-diazaspiro[5.5]undecane-8-carbonyl)-1H-benzo[d]imidazol-2-yl)-1H-pyrrolo[2,3-b]pyridin-6-yl)-N-(difluoromethyl) methanesulfonamide], 50000 nM; under `COc1cc(C(=O)N2[C@H]3CC[C@@H]2[C@H](N)C3)cc2nc(-c3cc4ccc([C@@H](C)NS(=O)(=O)c5ccc(F)cc5)nc4n3CC3CC3)n(C)c12` [Example 242, N-((R)-1-(2-(5-((1R,2R,4S)-2-amino-7-azabicyclo[2.2.1]heptane-7-carbonyl)-7-methoxy-1-methyl-1H-benzo[d]imidazol-2-yl)-1-(cyclopropylmethyl)-1H-pyrrolo[2,3-b]pyridin-6-yl)ethyl)-4-fluorobenzenesulfonamide], 107 nM.
For `COc1cc(C(=O)N2C[C@H](N)CCN2C)cc2nc(-c3cc4ccc([C@@H](C)NC(=O)c5cnn(C)c5)nc4n3CC3CC3)n(C)c12` [Example 169, N-((R)-1-(2-(5-((R)-5-amino-2-methylhexahydropyridazine-1-carbonyl)-7-methoxy-1-methyl-1H-benzo[d]imidazol-2-yl)-1-(cyclopropylmethyl)-1H-pyrrolo[2,3-b]pyridin-6-yl)ethyl)-1-methyl-1H-pyrazole-4-carboxamide], the IC50 worked out at 47.8 nM.
On the same count and under the same terms, the result for `COc1cc(C(=O)N2CCC[C@@H](N)C2)cc2nc(-c3cc4ccc(N(C(F)F)S(=O)(=O)C5CC5)nc4n3CC3CC3)n(C)c12` [Example 27, (R)-N-(2-(5-(3-aminopiperidine-1-carbonyl)-7-methoxy-1-methyl-1H-benzo[d]imidazol-2-yl)-1-(cyclopropylmethyl)-1H-pyrrolo [2,3-b]pyridin-6-yl)-N-(difluoromethyl) cyclopropanesulfonamide] reads 92.7 nM.
On the same count and under the same terms, under `COc1cc(C(=O)N2CCC[C@@H](N)C2)cc2nc(-c3cc4cc(F)c([C@@H](C)NC(=O)c5cnn(C(F)F)c5)cc4n3CC3CC3)n(C)c12` [Example 151, N-((R)-1-(2-(5-((R)-3-aminopiperidine-1-carbonyl)-7-methoxy-1-methyl-1H-benzo[d]imidazol-2-yl)-1-(cyclopropylmethyl)-5-fluoro-1H-indol-6-yl)ethyl)-1-(difluoromethyl)-1H-pyrazole-4-carboxamide] stands 102 nM.
Still for that read-out and setting: the result for `COc1cc(C(=O)N2C[C@H](N)CCN2C)cc2nc(-c3cc4ccc([C@@H](C)NC(=O)c5ccc(F)cc5C)nc4n3CC3CC3)n(C)c12` [Example 195, N-((R)-1-(2-(5-((R)-5-amino-2-methylhexahydropyridazine-1-carbonyl)-7-methoxy-1-methyl-1H-benzo[d]imidazol-2-yl)-1-(cyclopropylmethyl)-1H-pyrrolo[2,3-b]pyridin-6-yl)ethyl)-4-fluoro-2-methylbenzamide] reads 102 nM; that for `COc1cc(C(=O)N2CCC[C@@H](N)C2)cc2nc(-c3cc4ccc([C@@H](C)NC(=O)C(C)(C)C)nc4n3CC3CC3)n(C)c12` [Example 119, N-((R)-1-(2-(5-((R)-3-aminopiperidine-1-carbonyl)-7-methoxy-1-methyl-1H-benzo[d]imidazol-2-yl)-1-(cyclopropylmethyl)-1H-pyrrolo[2,3-b]pyridin-6-yl)ethyl)pivalamide], 78.4 nM; that for `COc1cc(C(=O)N2CC3CCCC3(N)C2)cc2nc(-c3cc4ccc(N(C(F)F)S(C)(=O)=O)nc4n3CC3CC3)n(C)c12` (stereo not shown) [Example 73, N-(2-(5-(3a-aminooctahydrocyclopenta[c]pyrrole-2-carbonyl)-7-methoxy-1-methyl-1H-benzo[d]imidazol-2-yl)-1-(cyclopropylmethyl)-1H-pyrrolo[2,3-b]pyridin-6-yl)-N-(difluoromethyl) methanesulfonamide], 7200 nM.
Take `COc1cc(C(=O)N2C[C@H](N)CCN2C)cc2nc(-c3cc4ccc([C@@H](C)NC(=O)C5(CF)CC5)nc4n3CC3CC3)n(C)c12` [Example 190, N-((R)-1-(2-(5-((R)-5-amino-2-methylhexahydropyridazine-1-carbonyl)-7-methoxy-1-methyl-1H-benzo[d]imidazol-2-yl)-1-(cyclopropylmethyl)-1H-pyrrolo[2,3-b]pyridin-6-yl)ethyl)-1-(fluoromethyl)cyclopropane-1-carboxamide]: the IC50 came to 89.7 nM.
Take `COc1cc(C(=O)N2[C@H]3CC[C@@H]2[C@H](N)C3)cc2nc(-c3cc4ccc([C@@H](C)NC(=O)C5CC5(F)F)cc4n3CC3CC3)n(C3CC3)c12` (stereo partly drawn) [Example 152, N-((R)-1-(2-(5-((1R,2R,4S)-2-amino-7-azabicyclo[2.2.1]heptane-7-carbonyl)-1-cyclopropyl-7-methoxy-1H-benzo[d]imidazol-2-yl)-1-(cyclopropylmethyl)-1H-indol-6-yl)ethyl)-2,2-difluorocyclopropane-1-carboxamide]: the IC50 was found to be 63 nM.
`COc1nccc(-c2ccccc2)c1-c1ccc2cc(-c3nc4cc(C(=O)N5C[C@H](N)CC[C@@H]5C)cc(OC)c4n3C)n(CC3CC3)c2n1` [Example 277, ((2S,5R)-5-amino-2-methylpiperidin-1-yl)(2-(1-(cyclopropylmethyl)-6-(2-methoxy-4-phenylpyridin-3-yl)-1H-pyrrolo[2,3-b]pyridin-2-yl)-7-methoxy-1-methyl-1H-benzo[d]imidazol-5-yl)methanone]: the concentration for half-maximal inhibition (IC50) turned out to be 3430 nM.
Still for that read-out and setting: under `COc1cc(C(=O)N2C[C@H](N)CCN2C)cc2nc(-c3cc4ccc([C@@H](C)NC(=O)c5ccc(C)nc5C)nc4n3CC3CC3)n(C)c12` [Example 214, N-((R)-1-(2-(5-((R)-5-amino-2-methylhexahydropyridazine-1-carbonyl)-7-methoxy-1-methyl-1H-benzo[d]imidazol-2-yl)-1-(cyclopropylmethyl)-1H-pyrrolo[2,3-b]pyridin-6-yl)ethyl)-2,6-dimethylnicotinamide] stands 100 nM.

Staying with this experiment, now noted: recombinant PAD4 5 nM, 2 mM calcium chloride, 3 mM BAEE substrate; geometric mean of multiple experiments.
In the case of `COc1cc(C(=O)N2C[C@H](N)[C@@H]3CC[C@H]2C3)cc2nc(-c3cc4ccc([C@@H](C)NC(=O)C5(OC)CC5)nc4n3CC3CC3)n(C)c12` [Example 322, N-((R)-1-(2-(5-((1S,4R,5R)-4-amino-2-azabicyclo[3.2.1]octane-2-carbonyl)-7-methoxy-1-methyl-1H-benzo[d]imidazol-2-yl)-1-(cyclopropylmethyl)-1H-pyrrolo[2,3-b]pyridin-6-yl)ethyl)-1-methoxycyclopropane-1-carboxamide], the IC50 turned out to be 62 nM.
On the same count and under the same terms, under `COc1cc(C(=O)N2C[C@H](N)[C@@H]3CC[C@H]2C3)cc2nc(-c3cc4ccc([C@@H](C)NC(=O)c5cnc(C(F)(F)F)cn5)nc4n3CC3CC3)n(C)c12` [Example 318, N-((R)-1-(2-(5-((1S,4R,5R)-4-amino-2-azabicyclo[3.2.1]octane-2-carbonyl)-7-methoxy-1-methyl-1H-benzo[d]imidazol-2-yl)-1-(cyclopropylmethyl)-1H-pyrrolo[2,3-b]pyridin-6-yl)ethyl)-5-(trifluoromethyl)pyrazine-2-carboxamide] stands 252 nM.
On the same count and under the same terms, the result for `COc1cc(C(=O)N2C[C@H](N)[C@@H]3CC[C@H]2C3)cc2nc(-c3cc4ccc([C@@H](C)NC(=O)C5(C)CC(F)(F)C5)nc4n3CC3CC3)n(C)c12` [Example 328, N-((R)-1-(2-(5-((1S,4R,5R)-4-amino-2-azabicyclo[3.2.1]octane-2-carbonyl)-7-methoxy-1-methyl-1H-benzo[d]imidazol-2-yl)-1-(cyclopropylmethyl)-1H-pyrrolo[2,3-b]pyridin-6-yl)ethyl)-3,3-difluoro-1-methylcyclobutane-1-carboxamide] reads 101 nM.
In the case of `COC(=O)N(C)c1ccc2cc(-c3nc4cc(C(=O)N5C[C@H](N)[C@@H]6CC[C@H]5C6)cc(OC)c4n3C)n(CC3CC3)c2n1` [Example 287, methyl (2-(5-((1S,4R,5R)-4-amino-2-azabicyclo[3.2.1]octane-2-carbonyl)-7-methoxy-1-methyl-1H-benzo[d]imidazol-2-yl)-1-(cyclopropylmethyl)-1H-pyrrolo[2,3-b]pyridin-6-yl)(methyl)carbamate], the IC50 worked out at 106 nM.
On the same count and under the same terms, under `COc1cc(C(=O)N2C[C@H](N)[C@@H]3CC[C@H]2C3)cc2nc(-c3cc4ccc([C@@H](C)NC(=O)C5(C(F)(F)F)CC5)nc4n3CC3CC3)n(C)c12` [Example 289, N-((R)-1-(2-(5-((1S,4R,5R)-4-amino-2-azabicyclo[3.2.1]octane-2-carbonyl)-7-methoxy-1-methyl-1H-benzo[d]imidazol-2-yl)-1-(cyclopropylmethyl)-1H-pyrrolo[2,3-b]pyridin-6-yl)ethyl)-1-(trifluoromethyl) cyclopropane-1-carboxamide] stands 174 nM.
